Data published in patent US20250277012A1 (Protagonist Therapeutics, Inc., priority 2021, published 2025).
Where two headings read alike, the source gives them in different places. Starred links: 1 amine or outer side, 2 acyl side, 3 side chain; linkers in the order of their positions; H or OH if unused. Positions of bridges follow the written chain, without caps; N, C: chain ends. Non-standard residues stand in square brackets, D forms with d. Residues, ends and D or L forms follow the SMILES beside them. Groups on a side chain read outwards from the residue. *: point of attachment. CH3O(CH2CH2O)11CH2CH2CO = COCCOCCOCCOCCOCCOCCOCCOCCOCCOCCOCCOCCC(=O)*; X1 = C[N+](C)(CCNC(=O)CCCCCCCCCCCCCCCCC(=O)O)CC(=O)*; C18 diacid = O=C(O)CCCCCCCCCCCCCCCCC(=O)*; Dip = N[C@H](C(=O)O)C(c1ccccc1)c1ccccc1; γGlu = O=C(O)[C@H](CCC(=O)[*:2])N[*:1]; Palmitoyl = CCCCCCCCCCCCCCCC(=O)*; NMeF = CN[C@@H](Cc1ccccc1)C(=O)O; β3hF = N[C@H](CC(=O)O)Cc1ccccc1; NMeK = CN[C@@H](CCCCN)C(=O)O; Pen = CC(C)(S)[C@H](N)C(=O)O; Isovaleryl = CC(C)CC(=O)*; dNMeS = CN[C@H](CO)C(=O)O; Dap = NC[C@H](N)C(=O)O; AEEA = NCCOCCOCC(=O)O; Ahx = NCCCCCC(=O)O

Assays:
ferroportin [1] = biological target: T1, ferroportin (Homo sapiens, UniProt Q9NP59); experiment: T47D cell-based ferroportin internalization assay in presence of mouse serum albumin (MSA); parameters: a human breast carcinoma adherent cell line which endogenously expresses ferroportin; host or cells: T47D
T1 sequence (Q9NP59 1-571): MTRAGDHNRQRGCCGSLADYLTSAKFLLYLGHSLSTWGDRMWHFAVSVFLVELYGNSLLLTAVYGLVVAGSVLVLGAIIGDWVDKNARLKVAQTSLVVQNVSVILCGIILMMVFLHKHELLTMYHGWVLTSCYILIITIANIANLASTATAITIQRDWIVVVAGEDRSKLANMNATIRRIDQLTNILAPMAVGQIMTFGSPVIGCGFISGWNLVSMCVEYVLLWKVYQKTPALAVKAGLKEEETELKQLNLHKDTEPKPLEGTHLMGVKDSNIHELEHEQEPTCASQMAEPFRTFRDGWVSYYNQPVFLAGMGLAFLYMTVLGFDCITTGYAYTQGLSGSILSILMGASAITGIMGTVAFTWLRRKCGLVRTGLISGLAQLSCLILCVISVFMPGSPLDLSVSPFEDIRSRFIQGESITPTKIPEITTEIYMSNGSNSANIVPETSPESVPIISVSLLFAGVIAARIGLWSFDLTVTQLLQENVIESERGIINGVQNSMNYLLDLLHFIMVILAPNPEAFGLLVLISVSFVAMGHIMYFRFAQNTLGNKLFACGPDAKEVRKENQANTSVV
Outline: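 Peptide potency for inducing ferroportin internalization was measured in T47D cells in the presence of serum albumin. Cells grown in RPMI with fetal bovine serum were seeded in 96-well plates at 80-100 k cells per well in 100 ul and rested overnight. Dilution series of test peptides were preincubated 30 min at room temperature, then added to the cells after the medium was aspirated.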

ferroportin [2] = biological target: T1, ferroportin; experiment: FPN activity assay: ferroportin-GFP internalization/degradation in HEK293 cells; assay type: cell-based; parameters: expressed in transfected cells; conditions: read-out: FPN IC50
Method: Following internalization, the ferroporin protein is degraded.
A retro inverse peptide is a peptide with a reversed sequence in all D amino acids. An example is that Hy-Glu-Thr-His-NH2 becomes Hy-DHis-DThr-DGlu-NH2. The EC50 of these reference compounds for ferroportin internalization/degradation was determined according to the FPN activity assay described above. These peptides served as control standards.

[3] = T47D internalization assay in presence of mouse serum albumin (MSA), Table 6E
[4] = ferroportin-GFP internalization/degradation, HEK293 cells, Table 6E
[5] = Table 6E, T47D internalization assay with MSA
[6] = Table 6E, ferroportin-GFP internalization/degradation, at least 18 hours incubation
[7] = T47D cells, 0.5% mouse serum albumin, 1 hr incubation
[8] = ferroportin-GFP HEK293 cells, at least 18 hours

| SMILES | IC50 (ferroportin [1]; [3]) [nM] | DC50 (ferroportin [2]; [4]) [nM] | IC50 (ferroportin [1]; [7]) [nM] | DC50 (ferroportin [2]; [8]) [nM] | other results |
| --- | --- | --- | --- | --- | --- |
| CC(C)CC(=O)N[C@@H](CCC(=O)O)C(=O)N[C@H](C(=O)N[C@@H](Cc1c[nH]cn1)C(=O)N[C@H](C(=O)N1CCC[C@H]1C(=O)N[C@H]1CSSC[C@@H](C(=O)N(C)[C@@H](CCCCNC(=O)COCCOCCNC(=O)COCCOCCNC(=O)[C@H](CN)NC(=O)CCCCCCCCCCCCCCCCC(=O)O)C(=O)N(C)[C@@H](Cc2ccccc2)C(=O)N[C@H](CCCCN)C(N)=O)NC1=O)C(c1ccccc1)c1ccccc1)[C@@H](C)O [compound 291] (Isovaleryl-ETH[Dip]PCC[NMeK]([AEEA-AEEA-Dap-C18 diacid])[NMeF][dK]-NH2; disulfide 6-7) | 10 to 100 | 10 to 100 | – | – | – |
| CCCCCCCCCCCCCCCC(=O)NCCCCCC(=O)NCCCC[C@@H](C(=O)N[C@H](C(=O)N[C@H](CCCCN)C(N)=O)C(c1ccccc1)c1ccccc1)N(C)C(=O)[C@@H]1CSSC[C@H](NC(=O)[C@@H]2CCCN2C(=O)[C@@H](NC(=O)[C@H](Cc2cnc[nH]2)NC(=O)[C@@H](NC(=O)[C@H](CCC(=O)O)NC(=O)CC(C)C)[C@@H](C)O)C(c2ccccc2)c2ccccc2)C(=O)N1 [compound 196] (Isovaleryl-ETH[Dip]PCC[NMeK]([Ahx-Palmitoyl])[Dip][dK]-NH2; disulfide 6-7) | – | – | – | – | IC50 (ferroportin [1]; [5]): 1 to 10 nM; DC50 (ferroportin [2]; [6]): 1 to 10 nM |
| CCCCCCCCCCCCCCCC(=O)N[C@@H](CCC(=O)NCCCC[C@@H](C(=O)N[C@H](CC(=O)N[C@H](CCCCNC(=O)CCOCCOCCOCCOCCOCCOCCOCCOCCOCCOCCOCCOC)C(N)=O)Cc1ccccc1)N(C)C(=O)[C@@H]1CSSC[C@H](NC(=O)[C@@H]2CCCN2C(=O)[C@@H](NC(=O)[C@H](Cc2cnc[nH]2)NC(=O)[C@@H](NC(=O)[C@H](CCC(=O)O)NC(=O)CC(C)C)[C@@H](C)O)C(c2ccccc2)c2ccccc2)C(=O)N1)C(=O)O [compound 222] (Isovaleryl-ETH[Dip]PCC[NMeK]([γGlu-Palmitoyl])[β3hF][dK](CH3O(CH2CH2O)11CH2CH2CO)-NH2; disulfide 6-7) | – | – | – | – | IC50 (ferroportin [1]; [5]): 1 to 10 nM; DC50 (ferroportin [2]; [6]): 10 to 100 nM |
| COCCOCCOCCOCCOCCOCCOCCOCCOCCOCCOCCOCCC(=O)NCCCC[C@@H](NC(=O)C[C@H](Cc1ccccc1)NC(=O)[C@H](CCCCNC(=O)COCCOCCNC(=O)COCCOCCNC(=O)[C@H](CN)NC(=O)CCCCCCCCCCCCCCCCC(=O)O)N(C)C(=O)[C@@H]1CSSC[C@H](NC(=O)[C@@H]2CCCN2C(=O)[C@@H](NC(=O)[C@H](Cc2c[nH]cn2)NC(=O)[C@@H](NC(=O)[C@H](CCC(=O)O)NC(=O)CC(C)C)[C@@H](C)O)C(c2ccccc2)c2ccccc2)C(=O)N1)C(N)=O [compound 255] (Isovaleryl-ETH[Dip]PCC[NMeK]([AEEA-AEEA-Dap-C18 diacid])[β3hF][dK](CH3O(CH2CH2O)11CH2CH2CO)-NH2; disulfide 6-7) | 10 to 100 | 10 to 100 | – | – | – |
| COC(=O)CC[C@H](NC(=O)CC(C)C)C(=O)N[C@H](C(=O)N[C@@H](Cc1c[nH]cn1)C(=O)N[C@H](C(=O)N1CCC[C@H]1C(=O)N[C@H]1CSSC[C@@H](C(=O)N(C)[C@@H](CCCCNC(=O)CCCCCNC(=O)[C@H](CN)NC(=O)CCCCCCCCCCCCCCCCC(=O)O)C(=O)N[C@H](C(=O)N[C@H](CCCCN)C(N)=O)C(c2ccccc2)c2ccccc2)NC1=O)C(c1ccccc1)c1ccccc1)[C@@H](C)O [compound 207] (Isovaleryl-E(OMe)TH[Dip]PCC[NMeK]([Ahx-Dap-C18 diacid])[Dip][dK]-NH2; disulfide 6-7) | – | – | – | – | IC50 (ferroportin [1]; [5]): 10 to 100 nM; DC50 (ferroportin [2]; [6]): 1 to 10 nM |
| CC(C)CC(=O)N[C@@H](CCC(=O)O)C(=O)N[C@H](C(=O)N[C@@H](Cc1c[nH]cn1)C(=O)N[C@H](C(=O)N1CCC[C@H]1C(=O)N[C@H]1CSSC[C@@H](C(=O)N[C@@H](CCCCNC(=O)CCCCCNC(=O)C[N+](C)(C)CCNC(=O)CCCCCCCCCCCCCCCCC(=O)O)C(=O)N[C@H](CC(=O)N[C@H](CCCCN)C(N)=O)Cc2ccccc2)NC1=O)C(c1ccccc1)c1ccccc1)[C@@H](C)O [compound 312] (Isovaleryl-ETH[Dip]PCCK([Ahx-X1])[β3hF][dK]-NH2; disulfide 6-7) | 10 to 100 | 10 to 100 | – | – | – |
| CCCCCCCCCCCCCCCC(=O)NCCCCCC(=O)NCCCC[C@H](NC(=O)C[C@H](Cc1ccccc1)NC(=O)[C@@H](CCCCN)NC(=O)[C@@H](NC(=O)[C@H](C)NC(=O)[C@@H]1CSSC[C@H](NC(=O)[C@H](CCC(=O)O)NC(=O)CC(C)C)C(=O)N[C@@H](Cc2c[nH]cn2)C(=O)N[C@@H](C(c2ccccc2)c2ccccc2)C(=O)N1)[C@@H](C)CC)C(=O)N[C@H](CCCCN)C(=O)N[C@@H](C)C(N)=O [Compd 45] (Isovaleryl-ECH[Dip]CAI[dK][β3hF]K([Ahx-Palmitoyl])[dK]A-NH2; disulfide 2-5) | – | – | 1 to 10 | 10 to 100 | – |
| CCCCCCCCCCCCCCCC(=O)NCCCCCC(=O)NCCCC[C@H](NC(=O)C[C@H](Cc1ccccc1)NC(=O)[C@@H]1CSSC[C@H](NC(=O)CC(C)C)C(=O)N[C@@H]([C@@H](C)O)C(=O)N[C@@H](Cc2c[nH]cn2)C(=O)N[C@@H](C(c2ccccc2)c2ccccc2)C(=O)N2CCC[C@H]2C(=O)N[C@@H](C)C(=O)N[C@@H]([C@@H](C)CC)C(=O)N1)C(=O)N[C@H](CCCCN)C(N)=O [Compd 43] (Isovaleryl-CTH[Dip]PAIC[β3hF]K([Ahx-Palmitoyl])[dK]-NH2; disulfide 1-8) | – | – | > 500 | 1 to 10 | – |
| CC(C)CC(=O)N[C@@H](CCC(=O)O)C(=O)N[C@H](C(=O)N[C@@H](Cc1cnc[nH]1)C(=O)N[C@H](C(=O)N1CCC[C@H]1C(=O)N[C@H]1CSSC[C@@H](C(=O)N(C)[C@@H](CCCCNC(=O)COCCOCCNC(=O)COCCOCCNC(=O)[C@H](CN)NC(=O)CCCCCCCCCCCCCCCCC(=O)O)C(=O)N[C@H](CC(=O)N[C@H](CCCCN)C(=O)N(C)[C@H](CO)C(N)=O)Cc2ccccc2)NC1=O)C(c1ccccc1)c1ccccc1)[C@@H](C)O [compound 247] (Isovaleryl-ETH[Dip]PCC[NMeK]([AEEA-AEEA-Dap-C18 diacid])[β3hF][dK][dNMeS]-NH2; disulfide 6-7) | 1 to 10 | 10 to 100 | – | – | – |
| CC[C@H](C)[C@@H]1NC(=O)[C@@H](NC(=O)[C@@H]2CCCN2C(=O)[C@H](Cc2ccccc2)NC(=O)[C@H](Cc2c[nH]cn2)NC(=O)[C@@H](NC(=O)[C@H](CCC(=O)O)NC(=O)CC(C)C)[C@@H](C)O)C(C)(C)SSC(C)(C)[C@@H](C(=O)N[C@@H](CCCCN)C(N)=O)NC(=O)CNC(=O)[C@H](CCCCN)NC(=O)[C@H](CO)NC(=O)[C@H](CCCNC(=N)N)NC(=O)[C@@H]2CCCN2C(=O)[C@H](CCC(=O)O)NC(=O)[C@H](Cc2ccccc2)NC(=O)[C@H](CCCCNC(=O)COCCOCCNC(=O)COCCOCCNC(=O)CC[C@H](NC(=O)CCCCCCCCCCCCCCCCC(=O)O)C(=O)O)NC1=O [Compd 18] (Isovaleryl-ETHFP[Pen]IK([AEEA-AEEA-γGlu-C18 diacid])FEPRSKG[Pen]K-NH2; disulfide 6-16) | – | – | > 500 | > 500 | – |
| CC(C)CC(=O)N[C@@H](CCC(=O)O)C(=O)N[C@H](C(=O)N[C@@H](Cc1c[nH]cn1)C(=O)N[C@H](C(=O)N1CCC[C@H]1C(=O)N[C@H]1CSSC[C@@H](C(=O)N[C@@H](CCCCNC(=O)COCCOCCNC(=O)COCCOCCNC(=O)[C@H](CN)NC(=O)CCCCCCCCCCCCCCCCC(=O)O)C(=O)N[C@H](CC(=O)N[C@H](CCCCN)C(N)=O)Cc2ccccc2)NC1=O)C(c1ccccc1)c1ccccc1)[C@@H](C)O [Compd 41] (Isovaleryl-ETH[Dip]PCCK([AEEA-AEEA-Dap-C18 diacid])[β3hF][dK]-NH2; disulfide 6-7) | – | – | 10 to 100 | 10 to 100 | – |
| COC(=O)CC[C@H](NC(=O)CC(C)C)C(=O)N[C@H](C(=O)N[C@@H](Cc1c[nH]cn1)C(=O)N[C@H](C(=O)N1CCC[C@H]1C(=O)N[C@H]1CSSC[C@@H](C(=O)N(C)[C@@H](CCCCNC(=O)CCCCCNC(=O)C[N+](C)(C)CCNC(=O)CCCCCCCCCCCCCCCCC(=O)O)C(=O)N[C@H](C(=O)N[C@H](CCCCN)C(N)=O)C(c2ccccc2)c2ccccc2)NC1=O)C(c1ccccc1)c1ccccc1)[C@@H](C)O [compound 232] (Isovaleryl-E(OMe)TH[Dip]PCC[NMeK]([Ahx-X1])[Dip][dK]-NH2; disulfide 6-7) | 10 to 100 | 10 to 100 | – | – | – |
